Results as given in patent publication US20030211995A1, “Methods and formulations for eradicating or alleviating staphylococcal nasal colonization using lysostaphin” (priority 2001, published 2003).
Where two headings read alike, the source gives them in different places. Marks after values point to notes of the source that are not given here. Where a SMILES comes first, the peptide text is derived from it.

Columns and labels:
[1] = test system: S. aureus strain MBT 5040; test: MIC by microtiter dilution assay; assay type: cell-based
Protocol: At the same time, a Columbia agar plate containing 2% NaCl (CSA) was inoculated with S. aureus strain MBT 5040 from a frozen stock. […] The MIC of a drug for a particular bacterial strain is the minimum concentration of the drug that inhibits normal growth of that particular bacterial strain.
Any detected S. aureus after lysostaphin treatment were tested for lysostaphin resistance by microtiter dilution assay. […] Plates were prepared by making lysostaphin dilutions in cation-adjusted Mueller Hinton broth+2%NaCl and 0.1%BSA (CAMHB+). The CAMHB+2% NaCl was made first, autoclaved, and then sterile 30% BSA was added to equal 0.1% BSA concentration. BSA prevents nonspecific lysostaphin interaction with plastic. The final volume of CAMHB+ in each well was 50 μl. Dilutions were 1:2, prepared by mixing 50 μl of the previous dilution into 50 μl of fresh media. The final row on the plate was left with no lysostaphin added as a control for growth. […] Overnight cultures were diluted ˜1:1000, as determined empirically, to yield a final concentration of 5×10^5/ml by measuring the optical density at 650 nm (OD650). […] The minimal inhibitory concentration (MIC) of lysostaphin, the lowest concentration of lysostaphin that prevents normal growth, was determined by reading the OD650 on a microplate reader.
Plates were incubated at room temperature for 6 to 18 hours. The OD650 was determined.

S. aureus (ATCC 49521) = test: Lysostaphin MIC assay, outgrowth of lysostaphin resistance with or without sub-MIC bacitracin or nisin; assay type: cell-based; design: key to growth in lysostaphin MIC assay: G = Normal growth; Blank = no growth; R = resistance outgrowth as determined by addition of 20 μg/ml lysostaphin for 4 hrs following initial overnight incubation; settings: for growth in lysostaphin MIC assay: replicate rows
Protocol: When lysostaphin is tested in a standard “Minimum Inhibitory Concentration” (MIC) assay, outgrowth of S. aureus is sometime observed above the MIC for almost all strains of S. aureus examined. On further testing, these outgrowth wells are found to contain lysostaphin-resistant S. aureus with MICs many dilutions above the MIC of the parental strain. […] This Example illustrates that the addition of the antibacterial agent bacitracin, eliminates lysostaphin-resistant outgrowths in vitro, and may likewise reduce or eliminate resistant outgrowths in vivo. […] Of course, nasal formulations comprising antibacterial agents above the MIC for that particular agent are also within the scope of this invention.
In this experiment a NCCLS standard MIC is conducted with the modification of adding 0.1% BSA to the assay. Rows 1-4 are lysostaphin MICs conducted in the absence of bacitracin while rows 5-8 are lysostaphin MICs conducted in the presence of bacitracin (5 μg/ml).
(§1) Lysostaphin MIC assays were conducted in the presence or absence of subinhibitory concentrations (four-fold dilution below MIC) of either bacitracin or nisin to determine if either substance prevented the outgrowth of lysostaphin resistance in these assays. This is as previously described in Example 14, above.

Type 5 S. aureus (MSSA) = test: Cotton rat nasal colonization model, single dose of cream; assay type: in vivo; settings: Table 6d; single dose of 0.5% lysostaphin cream
Protocol: (§2) On the day of instillation, S. aureus MBT 5040 was harvested from the CSA plate by scraping colonies into sterile. PBS (1 ml/animal to be instilled) until the percent transmittance of the sample was approximately 10% at […] in a 10 mm path length. The bacteria were pelleted by centrifugation and then resuspended in 10 μl/animal of sterile PBS. Cotton rats were sedated with 200 μl of Ketamine (25 mg/kg), Rompun (2.5 mg/kg), and Acepromazine (2.5 mg/kg) delivered intramuscularly. Ten microliters, approximately 10^9 S. aureus CFUs per animal, of MBT 5040 in PBS was instilled in the nares using a micropipette without touching the nares. Specifically, a drop of bacterial inoculum was placed on the nostril with a micropipettor, without touching the nose. The animal's regular process of respiration then inhaled the drop into the nares. After introduction of the MBT 5040 bacteria, the cotton rats were returned to normal water, without nafcillin. Unless otherwise indicated, this method was consistently used to instill S. aureus in the nares for all examples discussed below.
(§3) Ten cotton rats were nasally instilled with MBT 5040 S. aureus. On day 4 and day 5 post-instillation, the 5 animals were treated with a 0.5% lysostaphin cream and 5 animals were treated with a cream without lysostaphin added. Cream formulations were delivered into the nares of anaesthetized cotton rats by syringe through an Angiocath™ 22 GA flexible catheter (Becton Dickinson). The catheter was inserted approximately 3 mm into each of the nares and then drawn back as the cream was delivered. The noses of the cotton rats were massaged well following cream delivery to ensure good dispersal of cream. The dose of cream delivered to the nares was approximately 30-50 μl. Due to the cream's highly viscous nature, it was difficult to precisely gauge to volume of creams delivered to the nares. Unless otherwise indicated, this method of cream delivery into the nares was used throughout the examples below.
(§4) To determine the efficacy of a single dose of 0.5% lysostaphin cream in eradicating S. aureus nasal colonization, cotton rats were instilled with either MBT 5040 (MRSA), Type 5 S. aureus (sensitive to methicillin; MSSA), or Type 8 S. aureus (MSSA). Half of the animals in each group were treated once on day 5 post-instillation with negative control cream and other half of the animals were treated on the same day with 0.5% lysostaphin cream.

Type 8 S. aureus (MSSA) = test: as above; assay type: in vivo; settings: Table 6d; single dose of 0.5% lysostaphin cream
Protocol: as §2, §3, §4

[2] = test system: S. aureus strain SA 3865 (mupirocin resistant); test: as above; assay type: in vivo; settings: Table 6d; single dose of 0.5% lysostaphin cream
[3] = test system: S. aureus strain MRSA 12/12; test: as above; assay type: in vivo; settings: Table 6d; single dose of 0.5% lysostaphin cream
Protocol: To further explore the relationship between lysostaphin-resistance and nasal colonization, treatment of S. aureus strain MRSA 12/12 nasal colonization with a single dose of 0.5% lysostaphin cream was also examined. MRSA 12/12 colonized the cotton rat nares (Table 6d), and a single treatment of 0.5% lysostaphin cream also eradicated nasal colonization by this strain. Nasal supernatant from treated animals was plated on both TSA/NaCl+nafcillin and TSA/NaCl alone since when MRSA become lysostaphin-resistant they revert to MSSA (17).

S. aureus MBT 5040 = test: Cotton rat model, cream instilled before instillation of bacteria (blocking of colonization); assay type: in vivo; settings: administered in a viscous formulation such as a cream
Protocol: To determine how long lysostaphin, when administered in a cream formulation, remains active in the nares, a single dose of 2% lysostaphin cream was instilled in cotton rat noses 48 hours, 24 hours, and 8 hours prior to instillation of 10^9 CFU of S. aureus MBT 5040. Control animals received control cream, without lysostaphin, 8 hours prior to receiving bacteria. Six days after introduction of the bacteria, each of the 5 animals per experimental group were sacrificed and the noses checked for S. aureus colonization.

MBT 5040 LysoR = test: MIC of lysostaphin for lysostaphin-resistant variant; assay type: cell-based, S. aureus; settings: variant isolated in vitro
Protocol: Any detected S. aureus after lysostaphin treatment were tested for lysostaphin resistance by microtiter dilution assay. Lysostaphin was resuspended in sterile PBS, aliquotted and stored at −80° C. […] Once thawed, an aliquot of lysostaphin was stored at 4° C. and used for no more than two weeks. Plates were prepared by making lysostaphin dilutions in cation-adjusted Mueller Hinton broth+2%NaCl and 0.1%BSA (CAMHB+). The CAMHB+2% NaCl was made first, autoclaved, and then sterile 30% BSA was added to equal 0.1% BSA concentration. […] The final volume of CAMHB+ in each well was 50 μl. Dilutions were 1:2, prepared by mixing 50 μl of the previous dilution into 50 μl of fresh media. The final row on the plate was left with no lysostaphin added as a control for growth. A starting concentration of 1 μg/ml lysostaphin was used as the stock concentration. […] Overnight cultures were diluted ˜1:1000, as determined empirically, to yield a final concentration of 5×10^5/ml by measuring the optical density at 650 nm (OD650). […] The minimal inhibitory concentration (MIC) of lysostaphin, the lowest concentration of lysostaphin that prevents normal growth, was determined by reading the OD650 on a microplate reader.
Plates were incubated at room temperature for 6 to 18 hours. The OD650 was determined. […]

S. aureus = test: Proteinase K neutralization of lysostaphin activity in vitro; assay type: cell-based; settings: 10^5 S. aureus in PBS; lysostaphin 10 mcg and/or 10 mg/ml Proteinase K; 20 minutes at room temperature
Protocol: Lysostaphin (10 mcg) was added to some samples of 10^5 S. aureus in PBS in the presence or absence of 10 mg/ml Proteinase K. The samples were incubated for 20 minutes at room temperatures and then 100 microliter aliquots were plated on blood agar.

SA5 Sam = test: Lysostaphin MIC assay, outgrowth of lysostaphin resistance with or without sub-MIC bacitracin or nisin; assay type: cell-based, S. aureus; settings: nisin or bacitracin at four-fold dilution below MIC
Protocol: as §1

SA5 USU = test: as above; assay type: cell-based, S. aureus; settings: nisin or bacitracin at four-fold dilution below MIC
Protocol: as §1

SA8 Sam = test: as above; assay type: cell-based, S. aureus; settings: nisin or bacitracin at four-fold dilution below MIC
Protocol: as §1

For `COc1cccc(OC)c1C(=O)N[C@@H]1C(=O)N2[C@@H]1SC(C)(C)[C@@H]2C(=O)O` [methicillin, reference compound], which MIC ([1]; Staphylococcus aureus, MBT5040, read-out: MIC) is on record?
The MIC was greater than 36 µg/mL.

Which “growth in lysostaphin MIC assay” value (S. aureus (ATCC 49521); lysostaphin 0 ng/ml, bacitracin 5 μg/ml) does the source give for `CC[C@H](C)[C@H](N)C1=N[C@H](C(=O)N[C@@H](CC(C)C)C(=O)N[C@H](CCC(=O)O)C(=O)N[C@H](C(=O)N[C@H]2CCCCNC(=O)[C@H](CC(N)=O)NC(=O)[C@@H](CC(=O)O)NC(=O)[C@H](Cc3cnc[nH]3)NC(=O)[C@@H](Cc3ccccc3)NC(=O)[C@H]([C@@H](C)CC)NC(=O)[C@@H](CCCN)NC2=O)[C@@H](C)CC)CS1` [Bacitracin, bacitracin, reference compound] (HELM PEPTIDE1{[CC[C@H](C)[C@H](N)C1=N[C@H](C(=O)[*:2])CS1].L.[dE].I.K.[NCCC[C@@H](N[*:1])C(=O)[*:2]].I.[dF].H.[dD].N}$PEPTIDE1,PEPTIDE1,5:R3-11:R2$$$V2.0) here?
The value was “G^”.

What does the source list for “Lysostaphin: antibacterial endopeptidase cleaving pentaglycine bridges of staphylococcal cell walls; Ambicin L (recombinant lysostaphin) used in Examples 1-10”?
Animals Colonized/Animals Tested (Type 5 S. aureus (MSSA)): 0/5; Mean Colonization (Type 5 S. aureus (MSSA)): 0; Animals Colonized/Animals Tested (Type 8 S. aureus (MSSA)): 0/5; Mean Colonization (Type 8 S. aureus (MSSA)): 0; Animals Colonized/Animals Tested [2]: 0/5; Mean Colonization [2]: 0; Animals Colonized/Animals Tested [3]: 0/5; Mean Colonization [3]: 0; time lysostaphin remains active in the nares after administration (S. aureus MBT 5040): at least 48 hours; MIC [1]: 0.064 µg/mL; MIC (MBT 5040 LysoR): > 32 µg/mL; CFUs Recovered (S. aureus): 0 CFUs; growth in lysostaphin MIC assay (S. aureus (ATCC 49521); lysostaphin 0.25 ng/ml, no bacitracin): G; growth in lysostaphin MIC assay (S. aureus (ATCC 49521); lysostaphin 0.5 ng/ml, no bacitracin): G; growth in lysostaphin MIC assay (S. aureus (ATCC 49521); lysostaphin 1 ng/ml, no bacitracin): G; growth in lysostaphin MIC assay (S. aureus (ATCC 49521); lysostaphin 2 ng/ml, no bacitracin): R; growth in lysostaphin MIC assay (S. aureus (ATCC 49521); lysostaphin 4 ng/ml, no bacitracin): R^3 and R^; growth in lysostaphin MIC assay (S. aureus (ATCC 49521); lysostaphin 8 ng/ml, no bacitracin): R; growth in lysostaphin MIC assay (S. aureus (ATCC 49521); lysostaphin 16 ng/ml, no bacitracin): R; growth in lysostaphin MIC assay (S. aureus (ATCC 49521); lysostaphin 32 ng/ml, no bacitracin): R; growth in lysostaphin MIC assay (S. aureus (ATCC 49521); lysostaphin 125 ng/ml, no bacitracin): R; growth in lysostaphin MIC assay (S. aureus (ATCC 49521); lysostaphin 250 ng/ml, no bacitracin): R; Percentage of wells above lysostaphin MIC that have outgrowth of lysostaphin-resistance (S. aureus (ATCC 49521); nisin or bacitracin at four-fold dilution below MIC): 31^a %; Percentage of wells above lysostaphin MIC that have outgrowth of lysostaphin-resistance (SA5 Sam): 18%; Percentage of wells above lysostaphin MIC that have outgrowth of lysostaphin-resistance (SA5 USU): 14%; Percentage of wells above lysostaphin MIC that have outgrowth of lysostaphin-resistance (SA8 Sam): 58%
